pIC50, pKi: −log10 of the molar value.
Experiments:
[1] = target: T1, serotonin transporter (Rattus norvegicus, UniProt P31652); assay: 3H-paroxetine displacement, affinity for the serotonin transporter; type: binding; conditions: displacement of 3H-paroxetine from male rat frontal cortical membranes; read-out: 5-HT Transporter Affinity Ki
T1 construct: displace ^3H-paroxetine from male rat frontal cortical membranes; from tissue; host or cells: male rat frontal cortex membranes

[2] = target: T2, cloned human 5-HT1A receptors (Homo sapiens, UniProt P08908); assay: 35S-GTPγS binding assay, 5-HT1A function; type: biochemical; conditions: for pIC50: antagonist potency, reversal of effects of standard agonist 8-OHDPAT on 35S-GTPγS binding; for 5-HT1A Function (Imax): maximum inhibitory effect, 35S-GTPγS binding, reversal of 8-OHDPAT, unit assumed
T2 construct: expressed in transfected cells
T2 sequence (P08908 1-422): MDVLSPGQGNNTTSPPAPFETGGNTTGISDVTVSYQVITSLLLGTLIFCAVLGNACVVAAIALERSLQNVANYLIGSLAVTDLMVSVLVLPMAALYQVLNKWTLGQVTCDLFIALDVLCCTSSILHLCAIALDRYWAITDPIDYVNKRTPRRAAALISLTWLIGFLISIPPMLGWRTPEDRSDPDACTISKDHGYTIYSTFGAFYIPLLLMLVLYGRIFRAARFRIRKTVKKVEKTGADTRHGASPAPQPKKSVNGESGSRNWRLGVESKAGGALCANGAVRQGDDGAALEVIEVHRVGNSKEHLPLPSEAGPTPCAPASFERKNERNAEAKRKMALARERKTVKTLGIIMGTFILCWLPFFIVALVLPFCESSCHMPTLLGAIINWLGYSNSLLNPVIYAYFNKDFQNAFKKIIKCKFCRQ
Protocol: Antagonist activity at 5-HT1A receptors was established by using a ^35S-GTPγS binding assay similar to that used by Lazareno and Birdsall (Br. J. Pharmacol. 109: 1120, 1993), in which the test compound's ability to affect the binding of ^35S-GTPγS to membranes containing cloned human 5-HT1A receptors was determined. Agonists produce an increase in binding whereas antagonists produce no increase but rather reverse the effects of the standard agonist 8-OHDPAT. The test compound's maximum inhibitory effect is represented as the Imax, while its potency is defined by the IC50.

[3] = target: T3, human 5-HT1A receptors (Homo sapiens, UniProt P08908); assay: [3H] 8-OHDPAT displacement from the 5-HT1A serotonin receptor (transfected CHO cells); type: binding; conditions: displacement of [3H] 8-OHDPAT; CHO cells stably transfected with human 5-HT1A receptors; read-out: 5-HT1A Receptor Affinity Ki
T3 construct: expressed in transfected cells; host or cells: CHO cells (stably transfected)
T3 sequence (P08908 1-422): T2 sequence (P08908 1-422)
Source text: High affinity for the serotonin 5-HT1A receptor was established by testing the claimed compound's ability to displace [^3H] 8-OHDPAT (dipropylaminotetralin) from the 5-HT1A serotonin receptor following a modification of the procedure of Hall et al., J. Neurochem. 44, 1685 (1985) which utilizes CHO cells stably transfected with human 5-HT1A receptors.

[4] = target: T2, cloned human 5-HT1A receptors; assay: 35S-GTPγS binding assay, 5-HT1A function; type: biochemical

T1 sequence (P31652 whole entry): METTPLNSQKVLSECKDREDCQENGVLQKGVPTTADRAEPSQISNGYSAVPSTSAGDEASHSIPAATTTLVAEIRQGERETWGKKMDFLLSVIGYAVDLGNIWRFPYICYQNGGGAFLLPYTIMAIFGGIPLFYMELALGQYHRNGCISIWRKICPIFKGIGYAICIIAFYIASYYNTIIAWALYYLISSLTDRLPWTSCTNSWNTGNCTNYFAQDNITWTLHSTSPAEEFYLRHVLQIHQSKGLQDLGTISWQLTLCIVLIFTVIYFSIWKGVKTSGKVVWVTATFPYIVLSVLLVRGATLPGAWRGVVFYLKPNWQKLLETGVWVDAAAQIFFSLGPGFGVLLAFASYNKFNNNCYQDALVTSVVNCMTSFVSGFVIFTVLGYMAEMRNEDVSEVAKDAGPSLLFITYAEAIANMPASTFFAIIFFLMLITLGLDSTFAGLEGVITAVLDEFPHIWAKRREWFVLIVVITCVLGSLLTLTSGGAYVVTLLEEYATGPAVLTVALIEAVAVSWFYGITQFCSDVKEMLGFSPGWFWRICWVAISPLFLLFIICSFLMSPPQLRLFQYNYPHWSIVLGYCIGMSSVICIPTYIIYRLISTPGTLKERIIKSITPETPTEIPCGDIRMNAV

pKi [1] | pIC50 [2] | 5-HT1A Function (Imax) [2] | pKi [3] | EC50 ([4]; given as EC50) | Emax ([4]; given as Emax) | Compound
9.22 | 8.15 | 99% | 7.84 | – | – | COc1cccc2c1O[C@@H](CN[C@H]1CC[C@H](c3c[nH]c4ccc(F)cc34)C1)CO2 (mixture of isomers) [Example 2, N-[(trans)-3-(5-fluoro-1H-indol-3-yl)cyclopentyl]-N-{[(2S)-8-methoxy-2,3 dihydro-1,4-benzodioxin-2-yl]methyl}amine]
7.92 | 6.82 | 64% | 7.97 | – | – | COc1cccc2c1O[C@@H](CN[C@H]1CC[C@@H](c3cn(C)c4ccc(F)cc34)C1)CO2 (mixture of isomers) [Example 3, N-[(cis)-3-(5-fluoro-1-methyl-1H-indol-3-yl)cyclopentyl]-N-{[(2S)-8-methoxy-2,3-dihydro-1,4-benzodioxin-2-yl]methyl}amine]
8.41 | 7.28 | 79% | 8.52 | – | – | COc1cccc2c1O[C@@H](CN[C@H]1CC[C@H](c3cn(C)c4ccc(F)cc34)C1)CO2 (mixture of isomers) [Example 4, N-[(trans)-3-(5-fluoro-1-methyl-1H-indol-3-yl)cyclopentyl]-N-{[(2S)-8-methoxy-2,3-dihydro-1,4-benzodioxin-2-yl]methyl}amine]
9.22 | 6.98 | 48% | 8.09 | – | – | CCOc1cccc2c1O[C@@H](CN[C@H]1CC[C@@H](c3c[nH]c4ccc(F)cc34)C1)CO2 (mixture of isomers) [Example 5, N-{[(2S)-8-ethoxy-2,3-dihydro-1,4-benzodioxin-2-yl]methyl}-N-[(cis)-3-(5-fluoro-1H-indol-3-yl)cyclopentyl]amine]
9.37 | 6.44 | 25% | 7.60 | – | – | CCOc1cccc2c1O[C@@H](CN[C@H]1CC[C@H](c3c[nH]c4ccc(F)cc34)C1)CO2 (mixture of isomers) [Example 6, N-{[(2S)-8-ethoxy-2,3-dihydro-1,4-benzodioxin-2-yl]methyl}-N-[(trans)-3-(5-fluoro-1H-indol-3-yl)cyclopentyl]amine]
8.89 | 7.52 | 78% | 8.12 | – | – | COc1cccc2c1O[C@@H](CN[C@@H]1CC[C@H](c3c[nH]c4ccc(F)cc34)C1)CO2 (single isomer, unassigned) [Example 1-Isomer A, N-[(1R*,3S*)-3-(5-fluoro-1H-indol-3-yl)cyclopentyl]-N-{[(2S)-8-methoxy-2,3-dihydro-1,4-benzodioxin-2-yl]methyl}amine]
8.72 | 7.66 | 100% | 8.44 | – | – | COc1cccc2c1O[C@@H](CN[C@H]1CC[C@@H](c3c[nH]c4ccc(F)cc34)C1)CO2 (single isomer, unassigned) [Example 1-Isomer B, N-[(1S*,3R*)-3-(5-fluoro-1H-indol-3-yl)cyclopentyl]-N-{[(2S)-8-methoxy-2,3-dihydro-1,4-benzodioxin-2-yl]methyl}amine]
9.00 | 6.43 | 84% | 7.63 | – | – | COc1cccc2c1O[C@@H](CN[C@H]1CC[C@H](c3c[nH]c4ccc(F)cc34)C1)CO2 (single isomer, unassigned) [Example 2-Isomer A, N-[(1S*,3S*)-3-(5-fluoro-1H-indol-3-yl)cyclopentyl]-N-{[(2S)-8-methoxy-2,3-dihydro-1,4-benzodioxin-2-yl]methyl}amine]
9.10 | 7.12 | 32% | 8.69 | – | – | COc1cccc2c1O[C@@H](CN[C@@H]1CC[C@@H](c3c[nH]c4ccc(F)cc34)C1)CO2 (single isomer, unassigned) [Example 2-Isomer B, N-[(1R*,3R*)-3-(5-fluoro-1H-indol-3-yl)cyclopentyl]-N-{[(2S)-8-methoxy-2,3-dihydro-1,4-benzodioxin-2-yl]methyl}amine]
9.19 | – | – | 8.28 | – | – | COc1cccc2c1O[C@@H](CN[C@@H]1CC[C@H](c3c[nH]c4ccc(C#N)cc34)C1)CO2 (single isomer, unassigned) [Example 7-Isomer A]
9.24 | 7.62 | 56% | 8.02 | – | – | COc1cccc2c1O[C@@H](CN[C@H]1CC[C@H](c3c[nH]c4ccc(C#N)cc34)C1)CO2 (single isomer, unassigned) [Example 7-Isomer B]
8.22 | – | – | 7.90 | 23 nM | 64% | COc1cccc2c1O[C@@H](CN[C@@H]1CC[C@H](c3cn(C)c4ccc(C#N)cc34)C1)CO2 (single isomer, unassigned) [Example 8-Isomer A]
8.10 | – | – | 7.59 | – | – | COc1cccc2c1O[C@@H](CN[C@H]1CC[C@H](c3cn(C)c4ccc(C#N)cc34)C1)CO2 (single isomer, unassigned) [Example 8-Isomer B]
8.97 | 7.26 | 100% | 8.24 | – | – | COc1cccc2c1OC(CNC1CCC(c3c[nH]c4ccc(F)cc34)C1)CO2 [Example 1, N-[(cis)-3-(5-fluoro-1H-indol-3-yl)cyclopentyl]-N-{([(2S)-8-methoxy-2,3-dihydro-1,4-benzodioxin-2-yl]methyl}amine]
